# Measured values reported in paper PMC4433323, “Structural and Kinetic Characterization of Thymidine Kinase from Leishmania major” (PLoS Neglected Tropical Diseases, 2015).
# “And” between values parts separate entries of the source, which are not always exact repeats. Equal values may be shown once. Read-outs that look alike come from different tables or passages of the source. Marks after values point to notes of the source that are not given here.
# How the values were obtained:
# LmTK [1] = biological target: T1, LmTK (Leishmania major, UniProt Q4QC75); assay: TK activity, enzyme coupled spectrophotometric assay (substrate kinetics); format: biochemical; conditions: for kcat / Vmax / Km: recombinant full-length LmTK; for Vmax / Km: 25°C, pH 7.4; for Activity measurements at 10 mM substrate concentration (Vmax) / rate of phosphorylation by LmTK, fold lower than the Vmax value exhibited by TbTK: 10 mM substrate
# Procedure: (§1) TK activity was measured spectrophotometrically using an enzyme coupled assay in buffer containing 50 mM Tris-HCl pH 7.4, 5 mM MgCl2, 50 mM KCl, 1 mM DTT, 0.5 mM ATP, 0.5 mM phosphoenolpyruvate (PEP), 0.2 mM NADH, 0.2 mM thymidine (dThd), 2 U pyruvate kinase (PK), 4 U lactate dehydrogenase (LDH) and variable amounts of enzyme. The reaction rate (AU/min) was registered as a decrease in absorbance at 340nm (NADH extinction coefficient) at 25°C at pH 7.4 using a multicell Hewlett-Packard 8452 diode array UV-VIS spectrophotometer. Diluted stocks of frozen full-length LmTK were freshly prepared in assay buffer before the measurements. […]
# LmTK [2] = biological target: T1, LmTK; assay: Inhibition assay of LmTK activity; format: biochemical; conditions: for IC50: 22.3 nM LmTK, pH 7.4
# Procedure: TK activity was measured spectrophotometrically using an enzyme coupled assay in buffer containing 50 mM Tris-HCl pH 7.4, 5 mM MgCl2, 50 mM KCl, 1 mM DTT, 0.5 mM ATP, 0.5 mM phosphoenolpyruvate (PEP), 0.2 mM NADH, 0.2 mM thymidine (dThd), 2 U pyruvate kinase (PK), 4 U lactate dehydrogenase (LDH) and variable amounts of enzyme. The reaction rate (AU/min) was registered as a decrease in absorbance at 340nm (NADH extinction coefficient) at 25°C at pH 7.4 using a multicell Hewlett-Packard 8452 diode array UV-VIS spectrophotometer. Diluted stocks of frozen full-length LmTK were freshly prepared in assay buffer before the measurements.
# The method consists in determining experimental values for the initial velocities, v, as described above, at increasing inhibitor concentrations, added before initiating the reaction. LmTK and dThd concentrations were 22.3 nM and 25 μM respectively. The concentration of inhibitor that inhibits the activity by 50% (IC50) was calculated.
# hTK1 [3] = system: hTK1; design: method as in Munch-Peterson et al. [43]; conditions: 37°C; ref Munch-Peterson et al. [43]; cited from earlier work
# [4] = system: Leishmania intracellular amastigote; design: method as in PMID 20922414; conditions: cited from earlier work
# hTK1 [5] = biological target: hTK1; design: method as in PMID 3457791; conditions: cited from earlier work
# LmTK [6] = biological target: T1, LmTK; assay: TK activity, enzyme coupled spectrophotometric assay (substrate kinetics); format: biochemical; conditions: saturating dThd (25 μM)
# LmTK [7] = biological target: T1, LmTK; assay: Inhibition assay of LmTK activity; format: biochemical
# TK from rat liver = system: TK from rat liver; design: method as in PMID 4539354; conditions: similar conditions (equimolar dTTP and dThd); cited from earlier work
# [8] = substrate: Cc1cn([C@H]2C[C@H](O)[C@@H](CO)O2)c(=O)[nH]c1=O; assay: TK activity, enzyme coupled spectrophotometric assay (substrate kinetics); format: biochemical, Leishmania major; conditions: other: recombinant full-length LmTK, 25°C, pH 7.4
# Procedure: as §1
# [9] = biological target: the molecule itself; assay: AUC; sedimentation velocity, unliganded C-terminally His-tagged LmTK (dTTP dialysed away), 0.15 and 0.45 mg/mL, SEC buffer (10 mM Tris pH 8.0, 200 mM NaCl, 1 mM DTT), 42 000 rpm, 20°C; c(s) analysis with SEDFIT
# [10] = biological target: the molecule itself; assay: crystal structure; LmTK-dThd (with phosphate), 1.4 M Na/K PO4 pH 5.4, 1 mM dThd, 1 mM AppNHp, 3 mM MgCl2; space group P6(5)22, 2 protomers per asymmetric unit, 2.74 Å
molecule,measurement,setting,value
O=c1[nH]c(=O)n([C@H]2C[C@H](O)[C@@H](CO)O2)cc1CO [5CH2OH-2’dU],phosphorylation by LmTK (in words),LmTK [1],also phosphorylated
same,kcat,LmTK [1],2.82 s⁻¹
same,Vmax,LmTK [1],5.01 ± 1.30 µmol/min/mg
same,Km,LmTK [1]; read-out: KM,96.7 ± 23.1 µM
O=c1ccn([C@H]2C[C@H](O)[C@@H](COP(=O)(O)OP(=O)(O)OP(=O)(O)O)O2)c(=O)[nH]1 [dUTP],IC50,"LmTK [2]; 25 μM dThd, 0.5 mM ATP",187 µM
C[C@H]1O[C@@H](n2cc(F)c(=O)[nH]c2=O)[C@H](O)[C@@H]1O [5F-5’dU],phosphorylation by LmTK (in words),LmTK [1],is not
same,Activity measurements at 10 mM substrate concentration (Vmax),LmTK [1],0.00 ^a μmol∙min^-1∙mg^-1
"Nc1ncnc2c1ncn2[C@@H]1O[C@H](CO)[C@@H](O)[C@H]1O [Ado, adenosine]",Activity measurements at 10 mM substrate concentration (Vmax),LmTK [1],0.00 ^a μmol∙min^-1∙mg^-1
same,inhibition of LmTK,LmTK [2]; tested at 5 mM,no inhibition
Nc1ccn([C@H]2C[C@H](O)[C@@H](CO)O2)c(=O)n1 [dCyd],Activity measurements at 10 mM substrate concentration (Vmax),LmTK [1],0.07 ^a μmol∙min^-1∙mg^-1
O=c1ccn([C@@H]2O[C@H](CO)[C@@H](O)[C@H]2O)c(=O)[nH]1 [Urd],kcat,LmTK [1],0.44 s⁻¹
same,Vmax,LmTK [1],0.79 ± 0.12 µmol/min/mg
same,Km,LmTK [1]; read-out: KM,1460 ± 158 µM
O=c1[nH]cnc2c1ncn2[C@H]1C[C@H](O)[C@@H](CO)O1 [dIno],Activity measurements at 10 mM substrate concentration (Vmax),LmTK [1],0.04 ^a μmol∙min^-1∙mg^-1
same,"rate of phosphorylation by LmTK, fold lower than the Vmax value exhibited by TbTK",LmTK [1],23 fold
O=c1ccn([C@H]2C[C@H](O)[C@@H](CO)O2)c(=O)[nH]1 [dUrd],KM fold higher than that for dThd,LmTK [1],approximately 10 fold
same,kcat,LmTK [1],3.06 s⁻¹
same,Vmax,LmTK [1],5.45 ± 0.77 µmol/min/mg
same,Km,LmTK [1]; read-out: KM,11.1 ± 2.7 µM
same,Km,hTK1 [3],9 µM
same,Vmax,hTK1 [3],11.87 µmol/min/mg
same,kcat,hTK1 [3],5.07 s⁻¹
"Cc1cn([C@H]2C[C@H](N=[N+]=[N-])[C@@H](CO)O2)c(=O)[nH]c1=O [AZT, 3’-azido-3’-deoxythymidine]",kcat,LmTK [1],1.97 s⁻¹
same,Km,LmTK [1],3 µM and 3.04 µM
same,Vmax,LmTK [1],3.52 ± 0.56 µmol/min/mg
same,Leishmania intracellular amastigote growth (in words),[4],inhibit Leishmania intracellular amastigote growth
same,Km,hTK1 [3],0.6 µM
same,Vmax,hTK1 [3],4.96 µmol/min/mg
same,kcat,hTK1 [3],2.12 s⁻¹
Nc1ccn([C@@H]2O[C@H](CO)[C@@H](O)[C@H]2O)c(=O)n1 [Cyd],Activity measurements at 10 mM substrate concentration (Vmax),LmTK [1],0.00 ^a μmol∙min^-1∙mg^-1
"Cc1cn([C@H]2C[C@H](O)[C@@H](COP(=O)(O)OP(=O)(O)OP(=O)(O)OP(=O)(O)OP(=O)(O)OC[C@H]3O[C@@H](n4cnc5c(N)ncnc54)[C@H](O)[C@@H]3O)O2)c(=O)[nH]c1=O [Ap5dT, P1-(5-adenosyl)-P5-(5-thymidyl) pentaphosphate]",Ki,hTK1 [5],0.12 µM
same,IC50,"LmTK [2]; 25 μM dThd, 0.5 mM ATP",1.1 µM
Nc1ncnc2c1ncn2[C@@H]1O[C@H](COP(=O)(O)OP(=O)(O)OP(=O)(O)O)[C@@H](O)[C@H]1O [ATP],Hill coefficient (positive cooperativity),LmTK [6],1.6
same,K0.5,LmTK [6]; fit to Hill equation,58.6 ± 2.4 µM
Nc1nc2c(ncn2[C@@H]2O[C@H](CO)[C@@H](O)[C@H]2O)c(=O)[nH]1 [Guo],Activity measurements at 10 mM substrate concentration (Vmax),LmTK [1],0.00 ^a μmol∙min^-1∙mg^-1
O=c1[nH]c(=O)n([C@H]2C[C@H](O)[C@@H](CO)O2)cc1Br [5Br-2’dU],kcat,LmTK [1],3.47 s⁻¹
same,Vmax,LmTK [1],6.17 ± 0.19 µmol/min/mg
same,Km,LmTK [1]; read-out: KM,2 µM and 2.05 µM
"Cc1cn([C@H]2C[C@H](O)[C@@H](COP(=O)(O)O)O2)c(=O)[nH]c1=O [dTMP, thymidine monophosphate]",IC50,"LmTK [2]; 25 μM dThd, 0.5 mM ATP",165 µM
"Cc1cn([C@H]2C[C@H](O)[C@@H](COP(=O)(O)OP(=O)(O)OP(=O)(O)O)O2)c(=O)[nH]c1=O [dTTP, 2'-deoxythymidine triphosphate]",fold increase in the K0.5 value for ATP compared to absence of dTTP,"LmTK [7]; 3.5 μM dTTP, ATP 50–500 μM, 25 μM dThd",5 fold
same,enzyme inhibition,"LmTK [7]; 0.2 mM dTTP, equimolar 0.2 mM dThd, 0.5 mM ATP",98%
same,inhibition,TK from rat liver,87%
same,Hill coefficient (h) of inhibition,"LmTK [2]; 25 μM dThd, 0.5 mM ATP",1.6
same,IC50,"LmTK [2]; 25 μM dThd, 0.5 mM ATP",3.8 ± 0.07 µM
Nc1ccn([C@H]2C[C@H](O)[C@@H](COP(=O)(O)OP(=O)(O)OP(=O)(O)O)O2)c(=O)n1 [dCTP],IC50,"LmTK [2]; 25 μM dThd, 0.5 mM ATP",1250 µM
Nc1nc2c(ncn2[C@H]2C[C@H](O)[C@@H](COP(=O)(O)OP(=O)(O)OP(=O)(O)O)O2)c(=O)[nH]1 [dGTP],IC50,"LmTK [2]; 25 μM dThd, 0.5 mM ATP",549 µM
"Cc1cn([C@H]2C[C@H](O)[C@@H](CO)O2)c(=O)[nH]c1=O [dThd, 2’-deoxythymidine]",KM fold lower than that reported for TbTK,LmTK [1]; comparison with TbTK ref 35,~ 7 fold
Nc1ncnc2c1ncn2C1CC(O)C(CO)O1 (stereo not drawn) [dAdo],Activity measurements at 10 mM substrate concentration (Vmax),LmTK [1],0.01 ^a μmol∙min^-1∙mg^-1
same,"rate of phosphorylation by LmTK, fold lower than the Vmax value exhibited by TbTK",LmTK [1],6 fold
Nc1nc2c(ncn2[C@H]2C[C@H](O)[C@@H](CO)O2)c(=O)[nH]1 [dGuo],Activity measurements at 10 mM substrate concentration (Vmax),LmTK [1],0.04 ^a μmol∙min^-1∙mg^-1
same,"rate of phosphorylation by LmTK, fold lower than the Vmax value exhibited by TbTK",LmTK [1],10 fold
O=c1[nH]c(=O)n([C@H]2C[C@H](O)[C@@H](CO)O2)cc1F [5F-2’dU],kcat,LmTK [1],4.66 s⁻¹
same,Vmax,LmTK [1],8.29 ± 1.12 µmol/min/mg
same,Km,LmTK [1]; read-out: KM,5.7 µM and 5.72 µM
same,Km,hTK1 [3],2.2 µM
same,Vmax,hTK1 [3],8.99 µmol/min/mg
same,kcat,hTK1 [3],3.84 s⁻¹
LmTK (Leishmania major) (protein) FRGRIELIIGPMFAGKTTELMRRVKREIHARRSCFVIKYSKDTRYDEHNVASHDQLMLRAQAAVSQLTEVRDTWKRFDVLAIDEGQFFSDLVDFCNTAADAGKVVMVSALDGDYRRKPFGQICELVPYCEAVDKLTAVCMMCHEQPACFTRRTVNVEQQELIGGADMYIATCRECYSKQQLPSIEEMRTQRMAIKEVEKRYLGLSDKRATASPQTPEKPAGGWCTKAGVATLPTMVKEGAASSGASAGMKSGRGLCEMQAFTTETPKYQRVEPACTASAASSE,Km,[8],1.10 ± 0.33 µM
same,Vmax,[8],4.66 µmol/min/mg
same,kcat,[8],2.62 s⁻¹
same,kcat/Km,[8],2.38e+06 M⁻¹ s⁻¹
"C-terminally His-tagged truncated L. major thymidine kinase (LmTK), amino acids 2-185 (enzyme, L. major strain Friedlin, UniProt Q4QC75 2-185, looked up, Thymidine kinase of Leishmania major strain Friedlin (GeneDB LmjF.21.1210), C-terminally truncated version spanning amino acids 2-185; Non-cleavable C-terminal His tag; Stabilised with dTTP/MgCl2 or dThd/AppNHp/MgCl2; also called C-terminal histagged LmTK; LmTK-dTTP; source: Sf9 insect cells (baculovirus), purified (HisTrap, Superdex 200 SEC); not shown: His6, C-terminal, kept) FRGRIELIIGPMFAGKTTELMRRVKREIHARRSCFVIKYSKDTRYDEHNVASHDQLMLRAQAAVSQLTEVRDTWKRFDVLAIDEGQFFSDLVDFCNTAADAGKVVMVSALDGDYRRKPFGQICELVPYCEAVDKLTAVCMMCHEQPACFTRRTVNVEQQELIGGADMYIATCRECYSKQQLPSI",stoichiometry N,[9],4
"Truncated L. major thymidine kinase (LmTK), amino acids 2-185, as crystallised with dThd/AppNHp and with AP5dT (enzyme, L. major strain Friedlin, UniProt Q4QC75 2-185, looked up, Thymidine kinase of Leishmania major strain Friedlin (GeneDB LmjF.21.1210), C-terminally truncated version spanning amino acids 2-185; both preparations (each with dThd, AppNHp, MgCl2) were used for crystallization screening; also called LmTK-dThd; LmTK-dThd-AppNHp; source: Sf9 insect cells (baculovirus), purified (HisTrap, Superdex 200 SEC)) FRGRIELIIGPMFAGKTTELMRRVKREIHARRSCFVIKYSKDTRYDEHNVASHDQLMLRAQAAVSQLTEVRDTWKRFDVLAIDEGQFFSDLVDFCNTAADAGKVVMVSALDGDYRRKPFGQICELVPYCEAVDKLTAVCMMCHEQPACFTRRTVNVEQQELIGGADMYIATCRECYSKQQLPSI",stoichiometry N,[10],4
